*1 amine or outer side, *2 acyl side, *3 side chain or, on linkers, in order; H or OH if unused. Where a SMILES comes first, the peptide text is derived from it. Bridges are numbered along the chain shown (N, C = ends). [ ]: non-standard residue; d: D form. The star is where a group is joined. Leu(3R-OH,Nα-propionyl) = CCC(=O)N[C@H](C(=O)*)[C@H](O)C(C)C; X1 = CC(C)[C@@H](O[*:3])[C@H](N[*:1])C(=O)[*:2]; Leu(3R-OH) = CC(C)[C@@H](O)[C@H](N)C(=O)O; X2 = CCCC(=O)N[C@H](C(=O)*)[C@H](O)C(C)C; NMeT = CN[C@H](C(=O)O)[C@@H](C)O; dPhLac = O=C(O)[C@H](O)Cc1ccccc1; NMeA = CN[C@@H](C)C(=O)O; NMeDha = C=C(NC)C(=O)O
Experiments:
[1] = biological target: T1, wild type Gαq in HEK Gαq/Gα11-null cells (Homo sapiens, UniProt P50148); experiment: DMR (dynamic mass redistribution) inhibition of carbachol (CCh 100 µM) response in Gαq-transfected HEK293 Gαq/Gα11-null cells; format: cell-based; conditions: compounds added 1 h before, 37 °C, mean ± s.e.m. of n independent replicates in technical triplicates (FR n=11, FR-Core n=4, FR-5 n=4), read-out: pIC50 (Gαq inhibition, DMR) (converted)
T1 construct: expressed in transfected cells; host or cells: CRISPR/Cas9-edited HEK293 Gαq/Gα11-null cells
T1 sequence (P50148 1-359): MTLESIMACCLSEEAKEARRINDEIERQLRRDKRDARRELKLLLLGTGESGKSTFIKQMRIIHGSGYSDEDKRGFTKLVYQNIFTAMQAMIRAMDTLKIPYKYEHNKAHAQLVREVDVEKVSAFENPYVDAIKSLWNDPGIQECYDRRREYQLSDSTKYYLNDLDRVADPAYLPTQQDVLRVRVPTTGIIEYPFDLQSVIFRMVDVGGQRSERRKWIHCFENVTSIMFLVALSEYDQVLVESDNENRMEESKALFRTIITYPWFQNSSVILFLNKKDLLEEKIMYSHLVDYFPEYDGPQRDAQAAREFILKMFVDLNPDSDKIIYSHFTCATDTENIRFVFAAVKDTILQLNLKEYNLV
Description: Label-free dynamic mass redistribution (DMR) assay
Cell culture materials were purchased from Invitrogen (Carlsbad, CA, USA). Generation of genetically engineered HEK293 cells using CRISPR/Cas9 technology to knockout the subunits of Gαq and Gα11 (Gαq/Gα11-null cells) is described elsewhere. Cells were maintained in Dulbecco’s modified Eagle’s medium (DMEM) supplemented with 10% (v/v) fetal calf serum (FCS, PAN biotech, Germany), penicillin (100 units/mL), and streptomycin (0.1 mg/mL), and kept in a humidified atmosphere with 5% CO2 at 37 °C. All cell lines were screened by PCR on a monthly basis for mycoplasma contamination and were tested negative. DMR measurements were performed analogous to prior studies[39],[40] using the Epic DMR reader (Corning, NY, USA) together with the Cybi-SELMA semi-automated electronic pipetting system (Analytik Jena AG, Jena, Germany). 24 h after transfection with the G protein αq subunit, HEK293 cells were counted and seeded on 384-well fibronectin-coated biosensor plates at a density of 17,000 cells per well. On the next day, cells were washed twice with Hanks’ buffered salt solution containing 20 mM HEPES (HBSS + HEPES) and incubated for 1 h at 37 °C in the EPIC reader. 1, 2, 3 or 7 in HBSS + HEPES were added 1 h before the measurement. The sensor plate was scanned to record a baseline optical signature (no change in basal DMR), and after the addition of compounds, DMR alterations were monitored for 3000 s at 37 °C. All data were analyzed using GraphPad Prism 8.0.0 (GraphPad Inc, La Jolla, CA, USA). Quantification of DMR signals was performed by calculation of the maximum responses. […]
Concentration-effect curves in Fig. 4a–c were normalized by setting each experimental maximal effect as 100% response. All data are expressed as mean + or ± standard error of the mean (s.e.m.) of at least three independent experiments performed in technical triplicates. […]
Supplementary Table 6: Quantification of FR, FR-Core and FR-5 inhibitory activities at wild type Gαq in HEK Gαq/Gα11-null cells. […]

[2] = biological target: T2, Gαq proteins (human platelet membrane preparations) (Homo sapiens, UniProt P50148); experiment: Competition binding vs [³H]PSB-15900 at human platelet membrane preparations; conditions: vs 5 nM [³H]PSB-15900; 50 µg protein; 50 mM Tris pH 7.4; 37 °C, 1 h; read-out: pIC50 (competition binding) (converted)
T2 construct: human platelet membrane preparations that natively express Gαq proteins; from tissue; host or cells: human platelet membrane preparation
T2 sequence (P50148 1-359): T1 sequence (P50148 1-359)
Description: Competition binding assay
Competition binding assays of 1 and 2 were conducted versus the radiolabeled FR derivative [³H]PSB-15900 utilizing human platelet membrane preparations that natively express Gαq proteins. The experiments were performed in 50 mM Tris, pH=7.4, in a final assay volume of 200 µl. Each assay tube contained 50 µl [³H]PSB-15900 solution in the buffer (final concentration: 5 nM), 50 µl of human platelet membrane preparation in buffer (50 µg of protein), 95 µl of buffer, and 5 µl of 1 or 2 solution, respectively, in varying concentrations dissolved in DMSO. Non-specific-binding was determined in the presence of 5 µM FR dissolved in DMSO. Incubation was performed at 37 °C for 1 h with gentle shaking and was started by the addition of the membrane preparation. The incubation was terminated by rapid filtration through GF/C glass fiber filters using a Brandel 24-well-harvester. Filters were dried, punched out, transferred to scintillation vials, and incubated for at least 6 h in scintillation cocktail (2.5 ml ProSafe FC+®, Meridian Biotechnologies Ltd, UK) prior to measurement in a liquid scintillation counter at an efficiency of 53%. Data were evaluated using GraphPad Prism 7 (GraphPad Inc., San Diego, CA, USA), and IC50 values were determined by the One site – Fit logIC50-equation.

Riptortus pedestris = experiment: Oral feeding toxicity, survival rate of first instar stinkbug nymphs; format: in vivo; conditions: 40 µM, nine days
Description: Feeding and effect determination of 1 and 2 on insects
A small cotton pad soaked with 500 µl of 1 or 2-containing water was served to first instar nymphs of the stinkbug R. pedestris for oral intake. For feeding, 1 and 2 were each dissolved in 100% MeOH and diluted with water to concentrations of 0.2, 0.04, and 0.02 µg/µl. Distilled water containing 2% MeOH was used as control. Each experiment included 20 stinkbug individuals. Insects were reared in a moisture chamber at 25 °C under a long day regimen (16 h light, 8 h dark), supplied with dried soybean seeds. The 1 or 2-containing water was exchanged every 3 d, and the survival rate was monitored every day at the same time for 9 d.
Please select the one below that is the best fit for your research. If you are not sure, read the appropriate sections before making your selection. […]
Sample size Sample size: 7 groups of each 20 animals were treated with control (1 group) and two different compounds at 3 different concentrations (6 groups). […] Sample size (size of group) was determined based on standard laboratory practice, and the available amount of the compounds for the experiments. […]
We require information from authors about some types of materials, experimental systems and methods used in many studies. […] If you are not sure if a list item applies to your research, read the appropriate section before selecting a response. […]

| Structure (SMILES) | IC50 [1] | IC50 [2] | lethality in words, lower concentration (Riptortus pedestris) |
| --- | --- | --- | --- |
| C=C1C(=O)N[C@@H](C)C(=O)N(C)[C@@H](C)C(=O)N[C@@H]([C@H](OC(=O)[C@@H](NC(=O)CCC)[C@H](O)C(C)C)C(C)C)C(=O)N(C)[C@@H]([C@@H](C)OC)C(=O)O[C@H](C(C)C)[C@H](NC(C)=O)C(=O)O[C@H](Cc2ccccc2)C(=O)N1C [FR-5] (Ac-[X1][dPhLac][NMeDha]A[NMeA][X1](X2)[NMeT](Me); ester 1-C) | 3.16 µM | – | – |
| C=C1C(=O)N[C@@H](C)C(=O)N(C)[C@@H](C)C(=O)N[C@@H]([C@H](O)C(C)C)C(=O)N(C)[C@@H]([C@@H](C)OC)C(=O)O[C@H](C(C)C)[C@H](NC(C)=O)C(=O)O[C@H](Cc2ccccc2)C(=O)N1C [FR-Core] (Ac-[X1][dPhLac][NMeDha]A[NMeA][Leu(3R-OH)][NMeT](Me); ester 1-C) | 7.41 µM | 2.75 µM | – |
| C=C1C(=O)N[C@@H](C)C(=O)N(C)[C@@H](C)C(=O)N[C@@H]([C@H](OC(=O)[C@@H](NC(=O)CC)[C@H](O)C(C)C)C(C)C)C(=O)N(C)[C@@H]([C@@H](C)OC)C(=O)O[C@H](C(C)C)[C@H](NC(C)=O)C(=O)O[C@H](Cc2ccccc2)C(=O)N1C [FR] (Ac-[X1][dPhLac][NMeDha]A[NMeA][X1](Leu(3R-OH,Nα-propionyl))[NMeT](Me); ester 1-C) | 0.457 µM | 0.0132 µM | lethal effects |
